Results on two substances are retold here after patent publication US20260209269A1, “MANDELIC ACID SALT OF PALMITOYL LYSYLVALYL-LYSINE” (DSM IP Assets B.V., priority 2022, published 2026).

This data set can be described thus: Stability in a cosmetic preparation (clear gel), peptide content after storage. Format: physicochemical.

Take Palm-Lys-Val-Lys-OH*2MA [MA salt]: the loss of active (after 3 months storage at 40° C.) was −19%. For Palm-Lys-Val-Lys-OH*2MPAA [MPAA salt], under “after 1 months at 40° C.”, the loss of active came to 52%.
